Several values for one entry are separate records, joined by “and”; a condition that tells them apart may be missing. Identical values can stand only once. Entries after “also recorded” stand apart in the source; their conditions may differ. Square brackets hold non-standard residues; d marks the D form. Peptide text beside a SMILES is read from it.
Key:
[1] = system: primary mouse keratinocytes (1° MK); assay: UVB-evoked Ca++ signaling in primary mouse keratinocytes (fluo-4); type: cell-based; settings: for ET1-augmented UVB-induced Ca++ transients: co-exposure to ET1; for UVB-evoked Ca++ signal: GSK205 20 μM
Procedure: Ca++ imaging of 1° MK was conducted following routine procedures. For UVB stimulation, a customized device was built. The system comprised a printed circuit board for electrical interconnects and mechanical support and an ultraviolet light-emitting diode (UV LED).
The operating wavelength was 295 nm (FIG. 2A), with a full-width half-max of 12 nm. The optical power was 500 mW. The focal point was aimed at the plane of the upper surface of the quartz coverslip, which was used to minimize UV absorption along the optical path towards the cells (FIG. 2A-C). The optical intensity at the focal point was estimated to be 150 mW/mm^2.
(§1) Ca++ imaging of mouse 1° MK in response to chemical activation of TRPV4 was conducted after loading with 2 μM fura2-AM, following a ratiometric Ca2+ imaging protocol with 340/380 nm […] for dual excitation. Ratios of emissions were acquired at 0.5 Hz. ΔR/R0 was determined as the fraction of the increase of a given ratio over baseline ratio, divided by baseline ratio. For stimulation of cells with UVB, where fura-2 was not suitable because of the proximity of stimulation with 340/380 nm and 295 nm, 2 μM fluo4-AM was used instead. Ca++ imaging was carried out at 488 nm excitation, acquisition of emissions at 0.5 Hz, expressed as ΔF/F0. In the custom-built UV optical system, UV LEDs were capped with a ball lens, a transparent optical window in the shape of a hemispherical lens (FIG. 2B). The LED output optical beam focused at 15-20 mm from the lens, with a spot diameter of approximately 1.5-2.0 mm (FIG. 2C). […] The thermal equilibration stage was set for physiological temperature.

[2] = system: primary mouse keratinocytes (1° MK); assay: ET1 secretion by non-stimulated primary mouse keratinocytes (ELISA); type: cell-based
Procedure: FIGS. 8A-8D: Central role for KC TRPV4 in UVB-evoked Ca^++ signaling and nocifensive behavior—ET1-related supplementary findings. (FIG. 8A) Augmentation of GSK101-evoked Ca^++ signaling by ET1. Shown are averaged Ca^++ measurements (fura-2) in response to 5 nM GSK101. Note the increase in signal in response to co-exposure to ET1. (FIG. 8B) ET1 secretion by non-stimulated 1° MK depends on TRPV4 and PLC. Shown are relative ET1 concentrations (determined by ELISA, pg/mL; vehicle-treated and WT control normalized to 100) in supernatant of non-stimulated 1° MK. Note the clear dependence on TRPV4, as indicated by a 50% reduction in Trpv4^−/− 1° MK. […] There is also down-regulation of ET1 secretion by a specific inhibitor of PLC (U73122), and by an ET-convertase inhibitor, CGS35066, which served as a control compound. In addition, PLC-inhibitor robustly affects ET1 secretion in WT and Trpv4^−/− 1° MK. (FIG. 8C) ET1 expression by UVB-exposed 1° MK depends on TRPV4 and PLC—immunocytochemistry. Shown is specific ET1 immunolabeling in 1° MK, exposed to UVB using the UVB-LEDs, as for Ca^++ imaging. Use of the UVB-LED device precluded application of a ET1 ELISA, only irradiated cells could be examined. […] (FIG. 8D) ET1 expression by UVB-exposed 1° MK depends on TRPV4 and PLC—quantification of immunocytochemistry.

[3] = system: primary mouse keratinocytes (1° MK); assay: ET1 immunocytochemistry in UVB-exposed primary mouse keratinocytes; type: cell-based; settings: 295 nm UVB-LED
Procedure: 1° MK were exposed to UVB using the UV optical system (295 nm LED). 24 hours later the cells were fixed and fluorescently immunolabeled for ET1. Digital images were captured and subjected to morphometry.
Mouse keratinocytes were cultured on collagen coated quartz coverslips and then stimulated from the bottom using the previously mentioned UV optical system using the 295 nm LED. 24 hours later the cells were fixed in 4% formaldehyde in PBS for 20 minutes, permeabilized with 0.1% Triton X-100 in PBS for 10 minutes, washed, then blocked in 10% normal goat serum in PBS for 45 minutes. Coverslips were incubated overnight with primary antibody mouse anti-ET1 (1:200; Abcam), washed three times in PBS and incubated with secondary antibody for 2 hours at 25° C. Coverslips were washed three times in PBS, once with double-distilled H2O. Digital images were captured using a 40× immersion lens on the BX61 Olympus upright microscope. Morphometric analysis was conducted using ImageJ freeware with tailored regions-of-interest.

TRPV4 (rat) = molecular target: T1, TRPV4 (rat) (Rattus norvegicus, UniProt Q9ERZ8); assay: Ca++ imaging in N2a cells with directed expression of TRPV4, activation with GSK101; type: cell-based
T1 construct: expressed in transfected cells; host or cells: N2a (mouse neuroblastoma) cells
T1 sequence (Q9ERZ8 whole entry): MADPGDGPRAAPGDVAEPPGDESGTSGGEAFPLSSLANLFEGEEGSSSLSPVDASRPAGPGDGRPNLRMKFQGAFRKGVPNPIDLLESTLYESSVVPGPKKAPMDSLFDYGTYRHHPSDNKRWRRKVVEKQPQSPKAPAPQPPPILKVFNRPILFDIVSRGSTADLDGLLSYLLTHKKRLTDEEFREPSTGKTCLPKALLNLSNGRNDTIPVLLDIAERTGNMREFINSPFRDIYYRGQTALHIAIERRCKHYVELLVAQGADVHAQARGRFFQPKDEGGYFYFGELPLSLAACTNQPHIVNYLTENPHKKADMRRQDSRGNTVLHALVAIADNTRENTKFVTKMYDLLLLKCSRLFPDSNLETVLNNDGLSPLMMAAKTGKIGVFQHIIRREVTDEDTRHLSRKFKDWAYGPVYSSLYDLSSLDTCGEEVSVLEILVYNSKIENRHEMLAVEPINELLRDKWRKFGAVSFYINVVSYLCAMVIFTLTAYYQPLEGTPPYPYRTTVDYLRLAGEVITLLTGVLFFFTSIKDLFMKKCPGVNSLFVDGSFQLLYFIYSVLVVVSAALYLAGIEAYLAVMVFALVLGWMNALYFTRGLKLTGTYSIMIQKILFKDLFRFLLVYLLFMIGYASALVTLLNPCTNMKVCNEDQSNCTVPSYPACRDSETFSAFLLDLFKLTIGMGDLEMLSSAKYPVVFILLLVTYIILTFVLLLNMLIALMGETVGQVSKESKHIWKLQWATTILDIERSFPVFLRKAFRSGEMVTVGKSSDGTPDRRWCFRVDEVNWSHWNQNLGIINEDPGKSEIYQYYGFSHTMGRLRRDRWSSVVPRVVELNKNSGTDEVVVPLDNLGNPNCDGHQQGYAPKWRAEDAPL
Description: FIGS. 26A-26B: Assessment of compounds in N2a cells with directed expression of TRPV4. […] The number on each bar corresponds to average peak ΔCa++ concentrations in ≈100 cells. […] Plot generated from averaged peak ΔCa++ concentration of 75 cells per data-point.

TRPV4 [4] = molecular target: TRPV4 (Homo sapiens, UniProt Q9HBA0); assay: TRPV4-mediated calcium influx in N2a cells with targeted expression of human TRPV4; type: cell-based; design: expressed in transfected cells; host or cells: N2a cells; settings: 2.5 μM inhibitor, pre-incubation 10 min, 10 nM GSK101
Chain of TRPV4 (Homo sapiens, UniProt Q9HBA0) (Q9HBA0 whole entry): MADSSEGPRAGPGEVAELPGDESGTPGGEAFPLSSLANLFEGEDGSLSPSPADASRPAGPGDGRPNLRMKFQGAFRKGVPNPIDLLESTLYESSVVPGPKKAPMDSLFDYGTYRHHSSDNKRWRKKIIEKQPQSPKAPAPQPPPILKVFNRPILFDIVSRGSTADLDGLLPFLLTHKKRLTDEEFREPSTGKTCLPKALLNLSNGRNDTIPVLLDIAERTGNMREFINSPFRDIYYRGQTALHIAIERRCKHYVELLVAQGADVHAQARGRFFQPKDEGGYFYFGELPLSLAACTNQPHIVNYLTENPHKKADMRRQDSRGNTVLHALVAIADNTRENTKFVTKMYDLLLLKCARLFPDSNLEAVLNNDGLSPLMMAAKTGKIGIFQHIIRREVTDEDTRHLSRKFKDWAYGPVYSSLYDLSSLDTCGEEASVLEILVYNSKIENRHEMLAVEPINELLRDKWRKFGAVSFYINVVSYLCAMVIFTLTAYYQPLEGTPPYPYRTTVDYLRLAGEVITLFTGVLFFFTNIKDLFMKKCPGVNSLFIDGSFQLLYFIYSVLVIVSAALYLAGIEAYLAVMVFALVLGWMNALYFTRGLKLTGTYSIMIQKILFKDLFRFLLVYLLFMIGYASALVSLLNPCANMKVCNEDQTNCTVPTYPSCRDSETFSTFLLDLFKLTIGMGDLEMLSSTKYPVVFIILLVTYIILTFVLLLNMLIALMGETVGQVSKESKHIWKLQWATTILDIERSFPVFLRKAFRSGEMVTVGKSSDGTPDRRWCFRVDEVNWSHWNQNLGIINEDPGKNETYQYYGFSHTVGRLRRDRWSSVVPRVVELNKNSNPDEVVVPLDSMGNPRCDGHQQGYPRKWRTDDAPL

[5] = system: Trpv4−/− mice, whisker-pad injection of formalin; assay: Formalin-evoked trigeminal irritant pain, systemic (i.p.) compound, Trpv4−/− mice; type: in vivo, mouse; settings: 25 mg/kg i.p.
Procedure: FIGS. 31A-31D: 16-8 and 16-19 effectively attenuate formalin-evoked trigeminal irritant pain. (FIG. 31A) Time-course of nocifensive behavior in WT mice following whisker-pad injection of 4% formalin. The mice were pre-injected (i.p., 10 mg/kg; 15 min before formalin) with GSK205, 16-8 or 16-19. Note effective reduction of nocifensive behavior in the late “neural” phase by compounds 16-8, 16-19, not by GSK205. (FIG. 31B) Cumulative response binned into 3 phases: acute phase (0-5 min), interphase (5-15 min), and late “neural” phase (15-45 min). […] (FIG. 31C) As in (FIG. 31A), but also including Trpv4^−/− mice. Compounds were applied i.p. 15 min before formalin challenge, at 10 mg/kg except established TRPA1 blocker, A967079 (25 mg/kg). Previously-established attenuated nocifensive behavior in early and late phase in Trpv4^−/− mice was recapped, which was reduced further by TRPA1 blocker, A967079. (FIG. 31D) As in (FIG. 31B), plus inclusion of Trpv4^−/− mice. Robust effects of TRPA1-blocker, A967079, were mimicked equi-potently by 16-8 and 16-19 for early phase, and by 16-8 for late phase, partially by 16-19 for late phase. (FIG. 31A, FIG. 31C) show averaged behavioral metrics per time-point, bars in (FIG. 31B, FIG. 31D) represent mean±SEM; for (D) *p<0.05; #P<0.005, one-way ANOVA; for all panels n=5-8 mice/group.
Compounds were tested for their effect in reducing pain using an in vivo pain model in mice. For mouse formalin-evoked irritant behavior measurements, mice were well-fed, well-rested, and tested at the same time of day, at the same time-point of their circadian rhythm. They were allowed to acclimate to a plexiglas chamber for at least 30 min before testing, and received 10 μL subcutaneous injection of 4% of formalin (diluted from an aqueous solution of commercial 37% formaldehyde with normal saline (NS)) through a 30-gauge needle into the right whiskerpad, as further detailed in Luccarini et al. (J. Pain, 2006, 7, 908-914). Normal saline was used as control injection. After injection, mice were immediately placed back into the chamber and the rubbing behavior was recorded by a private consumer-type video-camera for a 45 min observation period. The recording time was divided into 9 blocks of 5 min, and a nociceptive score was determined per block by measuring the time that the animals spent rubbing the injected area predominantly with the ipsilateral fore-paw and rarely with hind-paw. This rubbing behavior with fore-paw is evoked by pain, which is distinct from itch behavior. Behavioral analysis was conducted by observers blinded to treatment.
We observed significant residual irritant-pain behavior in all phases of the formalin model in Trpv4^−/− mice, consistent with our previous report^13 (FIG. 31C,D). […] A reference TRPA1-inhibitory compound, A967079, was used at 25 mg/kg body weight as a positive control to inhibit TRPA1, based on a previous report^38. Reduction of pain behavior in Trpv4^−/− mice was striking, more than 50% in the late neural phase. […] We conclude that compound 16-8 also functions as a potent TRPA1-inhibitor in an in-vivo irritant pain model specifically designed to assess the contribution of TRPA1 to trigeminal irritant pain, and at least as potent as an established reference TRPA1-antagonistic compound.

TRPV4 [6] = molecular target: T2, TRPV4 (Mus musculus, UniProt Q9EPK8); assay: Ca++ transients in primary mouse keratinocytes on chemical activation of TRPV4 (GSK101, 4α-PDD); type: cell-based; settings: 1° MK
T2 construct: endogenous in cells; host or cells: primary mouse epidermal keratinocytes (1° MK)
T2 sequence (Q9EPK8 whole entry): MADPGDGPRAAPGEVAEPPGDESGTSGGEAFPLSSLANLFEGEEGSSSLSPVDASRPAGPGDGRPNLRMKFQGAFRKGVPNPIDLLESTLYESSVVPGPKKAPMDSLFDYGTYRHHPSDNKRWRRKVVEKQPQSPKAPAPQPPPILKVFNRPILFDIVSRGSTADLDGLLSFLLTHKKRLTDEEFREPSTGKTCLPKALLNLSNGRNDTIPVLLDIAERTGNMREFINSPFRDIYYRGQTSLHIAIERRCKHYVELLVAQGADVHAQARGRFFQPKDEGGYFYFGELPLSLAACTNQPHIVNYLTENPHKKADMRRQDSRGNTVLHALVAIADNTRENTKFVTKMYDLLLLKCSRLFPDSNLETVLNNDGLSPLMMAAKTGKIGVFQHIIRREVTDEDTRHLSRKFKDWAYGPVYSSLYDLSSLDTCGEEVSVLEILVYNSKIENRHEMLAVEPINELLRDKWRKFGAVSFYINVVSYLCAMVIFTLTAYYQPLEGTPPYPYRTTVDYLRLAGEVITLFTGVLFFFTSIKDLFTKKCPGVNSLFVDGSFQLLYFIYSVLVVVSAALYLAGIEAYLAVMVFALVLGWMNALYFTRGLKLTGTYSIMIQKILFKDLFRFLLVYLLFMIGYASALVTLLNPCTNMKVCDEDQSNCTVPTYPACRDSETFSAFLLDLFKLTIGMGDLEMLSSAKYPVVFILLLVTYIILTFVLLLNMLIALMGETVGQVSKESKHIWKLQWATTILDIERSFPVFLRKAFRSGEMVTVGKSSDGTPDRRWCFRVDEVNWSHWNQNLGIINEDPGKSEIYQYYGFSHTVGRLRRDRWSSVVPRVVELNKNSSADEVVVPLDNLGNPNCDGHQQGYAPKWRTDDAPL
Procedure: as §1, with “temperature. We confirmed the non-thermal nature of UVB stimulation using the customized 295 nm LED device in a dedicated experiment (FIG. 2D), thus confirming the specific modality of stimulation as UVB.” for “temperature.”

[7] = system: WT and oil-treated iKO mice; assay: Nocifensive behavior after ET1 footpad injection (von Frey); type: in vivo, mouse; settings: 10 μL 100 nM ET-1 intraplantar
Procedure: ET1 injections: After determining base-line withdrawal thresholds, each animal received an intraplantar injection of 10 μL 100 nM ET-1 plus contralateral vehicle. Thresholds were again evaluated 1 hour after injection.
Hindpaw mechanical withdrawal thresholds were determined by the automated von Frey hair method, using a 0.5 mm diameter stainless steel filament, part of an automated plantar touch stimulator (Ugo Basile, Modena, Italy). Relevant detail included pre-test acclimatization in a quiet room for 30 min, conducting the test at the same time of day and blinded observers. The stimulus was delivered to the hindpaw, automatically discontinued upon withdrawal, and its intensity recorded automatically. 6-8 trials per animal were conducted, with equal exposure of both hindpaws, leading to an average withdrawal threshold. Results are reported as […], which was calculated by subtracting post-treatment from pre-treatment measurements, expressed as % or relative to 1.0.

## CC(C)C[C@@H]1NC(=O)[C@@H](C(C)C)NC(=O)[C@@H]2CCCN2C(=O)[C@@H](CC(=O)O)NC(=O)[C@@H](Cc2c[nH]c3ccccc23)NC1=O [BQ123] (cyclo(L[dW][dD]P[dV]))
[1]
  ET1-augmented UVB-induced Ca++ transients: attenuated

## CCCC[C@@H](NC(=O)[C@@H](Cc1cn(C(=O)OC)c2ccccc12)NC(=O)[C@H](CC(C)(C)C)NC(=O)N1[C@H](C)CCC[C@@H]1C)C(=O)O [BQ788]
[1]
  ET1-augmented UVB-induced Ca++ transients: attenuated

## O=C(O)C(Cc1ccc2c(c1)oc1ccccc12)NCP(=O)(O)O (centres unmarked) [CGS35066]
[1]
  UVB-evoked Ca++ signal: significantly diminished
[2]
  ET1 secretion, supernatant of non-stimulated 1° MK: down-regulation
[3]
  ET1 immunoreactivity in UVB-exposed 1° MK: significant down-regulation

## CCN(CCc1ccc(Nc2nc(-c3cccnc3)cs2)cc1)Cc1ccccc1 [Compound 16-18]
TRPV4 (rat); N2a cells, rat TRPV4, 5 nM GSK101, averaged peak ΔCa++, read-out: IC50, inhibition of TRPV4-mediated Ca++ influx
  IC50: 810 nM and 590 nM
TRPV4 (rat); from IC50 values, rat TRPV4 in N2a cells
  increased potency versus parental compound GSK205: ~5 fold
TRPV4 (rat); inhibitor 5 μM, 5 nM GSK101
  inhibition of TRPV4-mediated Ca++ influx, first round screening: two most potent
TRPV4 [4]
  inhibition of TRPV4-mediated calcium influx (peak calcium concentration): most potent

## CCC(=N\O)/C(C)=C/c1ccc(F)cc1 [Compound A967079, reference compound]
[5]
  reduction of pain behavior in the late neural phase: more than 50%

## COc1ccc2c(c1)CC[C@@H]1[C@@H]2CC[C@]2(C)[C@@H](NCCCCCCN3C(=O)C=CC3=O)CC[C@@H]12 [Compound U73122]
[1]
  UVB-evoked Ca++ signal: virtually eliminated; also recorded: strongly reduced
[2]
  ET1 secretion, supernatant of non-stimulated 1° MK: down-regulation
[3]
  ET1 immunoreactivity in UVB-exposed 1° MK: significant down-regulation

## C=C(C)CCO[P@@](=O)(O)OP(=O)(O)O [IPP, isopentenyl pyrophosphate]
[1]
  UVB-evoked Ca++ signal: not inhibited

## CC(C)NCCN(C(C)C)S(=O)(=O)c1ccc(Cl)cc1Cl [RN1734]
[2]
  ET1 secretion, supernatant of non-stimulated 1° MK: significant down-regulation
[3]
  ET1 immunoreactivity in UVB-exposed 1° MK: significant down-regulation

## ET1: endothelin-1 peptide, cognate ligand of endothelin receptors
[1]
  UVB-evoked Ca++ signal: significant increase
TRPV4 [6]; 5 nM GSK101, GSK205 20 μM
  GSK101-evoked Ca++ transient: augmented
TRPV4 [6]; fura-2
  4α-PDD-evoked Ca++ transient: significant increase
[7]
  mechanical withdrawal after footpad injection: significant levels of mechanical allodynia

From patent publication US11564911B2, “Small molecule dual-inhibitors of TRPV4 and TRPA1 for sanitizing and anesthetizing” (Duke University, priority 2016, dated 2023)
